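All cell lines were grown in 96-well plates and treated with compound for 48 hours. The concentration for 50% growth inhibition is given as GI50. TGI is the concentration that stops growth completely.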
Columns and labels:
Test in all cases: DTP human tumour cell line panel, 48 h
HOP-62 NSCLC = tested on: HOP-62 NSCLC
HL-60(TB) leukemia = tested on: HL-60(TB) leukemia
ACHN renal = tested on: ACHN renal
U251 CNS = tested on: U251 CNS
SW-620 colon = tested on: SW-620 colon
T-47D breast = tested on: T-47D breast
OVCAR-4 ovarian = tested on: OVCAR-4 ovarian
KM12 colon = tested on: KM12 colon
DU-145 prostate = tested on: DU-145 prostate
SK-MEL-5 melanoma = tested on: SK-MEL-5 melanoma

| SMILES | GI50 (HOP-62 NSCLC) | TGI (HOP-62 NSCLC) | GI50 (HL-60(TB) leukemia) | TGI (HL-60(TB) leukemia) | GI50 (ACHN renal) | TGI (ACHN renal) | GI50 (U251 CNS) | TGI (U251 CNS) | GI50 (SW-620 colon) | TGI (SW-620 colon) | GI50 (T-47D breast) | TGI (T-47D breast) | GI50 (OVCAR-4 ovarian) | TGI (OVCAR-4 ovarian) | GI50 (KM12 colon) | TGI (KM12 colon) | GI50 (DU-145 prostate) | TGI (DU-145 prostate) | GI50 (SK-MEL-5 melanoma) | TGI (SK-MEL-5 melanoma) |
| --- | --- | --- | --- | --- | --- | --- | --- | --- | --- | --- | --- | --- | --- | --- | --- | --- | --- | --- | --- | --- |
| Cc1ccc(-n2c(-c3cc4c([nH]c5ccccc54)c(-c4cccc(O)c4)n3)n[nH]c2=S)cc1 | 1.24 µM | 4.87 µM | 1.08 µM | 3.43 µM | 2.37 µM | 15.4 µM | 0.371 µM | 2.22 µM | 0.406 µM | 11.8 µM | 1.8 µM | 11.9 µM | 2.23 µM | 11 µM | 1.15 µM | 5.1 µM | 0.616 µM | 6.17 µM | 1.32 µM | 3.31 µM |
| O=C1/C(=C/c2ccccc2O)N=C(c2ccccc2)N1c1cc(C(F)(F)F)ccc1Cl | 15.9 µM | 30.4 µM | > 100 µM | > 100 µM | 18.6 µM | 51.4 µM | 23.3 µM | 61.9 µM | > 100 µM | > 100 µM | 6.68 µM | > 100 µM | > 100 µM | > 100 µM | 8.29 µM | > 100 µM | 43.8 µM | > 100 µM | 62.2 µM | > 100 µM |
| C[C@H]1CN(C2COC2)CCN1c1ccc(Nc2cc(-c3ccnc(N4CCn5c(cc6c5CC(C)(C)C6)C4=O)c3CO)cn(C)c2=O)nc1 | 39.1 µM | > 100 µM | 16.6 µM | 47.2 µM | 30.2 µM | > 100 µM | 44.8 µM | > 100 µM | 47.8 µM | > 100 µM | 19.2 µM | > 100 µM | 22.4 µM | > 100 µM | 56.8 µM | > 100 µM | 45.9 µM | > 100 µM | 31.2 µM | > 100 µM |
| COc1cc(-c2ncn(/C=C\c3nnco3)n2)cc(C(F)(F)F)c1 | 0.403 µM | > 47 µM | 0.0809 µM | 13.1 µM | 0.318 µM | > 100 µM | 0.0661 µM | 17.6 µM | 0.0663 µM | 31.7 µM | 0.571 µM | > 59.9 µM | 0.211 µM | > 72.4 µM | 0.705 µM | > 39.3 µM | 0.416 µM | > 100 µM | 0.411 µM | 4.39 µM |
